Reference: patent US10106582B2, “Complex-formation-modulating agents and uses therefor” (Factor Therapeutics Limited, priority 2012, dated 2018)

Tested on: MCF-7 cells
Experiment: Transwell migration assay, IGF-I+IGFBP-5+VN trimeric complex-stimulated MCF-7 cell migration
Assay type: cell-based, human
Source text: Two motifs (motifs 1 and 8) within native VN, deemed potentially significant in supporting the binding of IGF-II, IGFBP-3 and IGFBP-5, were identified as outlined in the previous section. After preliminary in silico analyses motif 8 (J4-7) was deemed as potentially the most significant region within native VN supporting binding interactions of all the three IGF-II, IGFBP-3 and IGFBP-5 proteins and was chosen for the initial analyses. The VN-peptide covering the sequences of motif 8 was designed such that it covered all the 3AA frameshift sets that contributed to a positive spot within the motif 8 (see, FIG. 3 and Table 7). The sequence of this peptide is RVNLRTRRVDTVDPPYPRS [SEQ ID NO:100] and is designated P8. […] The sequence of that peptide is […] [SEQ ID NO:86] and is designated P7. […] The functional effects of these peptides on IGF-I:IGFBP:VN-stimulated breast cancer cell migration were investigated using Transwell® assays. Transwells® were pre-bound with VN, either alone or in combination with IGF-I and IGFBP-5 (TRI). Treatment with TRI supplemented with increasing concentrations of peptides P7 and/or P8 were assayed. TRI supplemented with Anlg or Neg peptide were included as positive and negative controls of migration inhibition, respectively. All unbound proteins were removed with washing and MCF-7 cell migration was assessed over 15 hours.
The Transwell® inserts were prepared by pre-binding the lower chamber and the under-surface of the 8-μm pore membranes with proteins as described below. For all 2D functional assays described throughout this study, including Transwell® the treatments for the pre-binding steps were VN, IGF-I+IGFBP-5+VN (TRI) complex, either alone or in combination with respective controls or VN-peptides. The concentrations of the proteins added into the culture wells were VN, 1 μg/mL; IGF-I, 30 ng/mL and IGFBP-5, 90 ng/mL, unless otherwise stated. The concentration of VN-peptides used are indicated where appropriate.
Optimal IGF-I:IGFBP-5:VN-mediated attachment and migration of MCF-7 cells in multiwell plates is obtained by pre-binding human native-IGF-I and/or IGFBP-5 and VN at concentrations of 30 ng/mL, 90 ng/mL and 1 μg/mL per well, respectively, to the lower chambers and under surfaces of Transwells®. […] For Anlg, concentrations varying from 30 ng/mL to 300 ng/mL were used.
Transwells® were prepared by pre-binding the test proteins, either alone or in combinations, to the lower chambers and under-surfaces of Transwells® following procedures previously described (Kricker et al., 2003). Briefly, 0.5 mL DMEM/F12 serum-free phenol-red free medium (SFM) containing 1 μg/mL VN was added to the lower chambers of 24-well, 8-μm pore Transwell® plates and incubated for 3 hours at 37° C. Unbound VN was removed and the wells were washed twice with 0.5 mL SFM+0.5% BSA following which 0.5 mL of SFM+0.5% BSA was placed in the lower chamber to block surfaces with no protein bound. To pre-bind growth factors, 0.5 mL SFM+0.05% BSA containing native IGF-I (30 ng/mL), IGFBP-5 (90 ng/mL) or Anlg, either alone or in combination, were added to the lower chambers of the Transwells® and incubated overnight at 4° C. The solution containing unbound growth factors was removed and the wells were washed twice with SFM+0.05% BSA and replaced with 0.5 mL of SFM+0.05% BSA. Throughout the pre-binding procedure care was taken to keep the upper surface of the Transwell® inserts dry.
Migration assays were essentially performed following protocols described previously in Leavesley et al 1993, J Cell Biol. 121:163-70. The cells in culture flasks were split 1:1, 24 hours prior to performing the migration assay. The cells were serum-starved for 4 hours and a cell suspension containing 6×10^4 cells in 200 μL SFM+0.05% BSA was seeded onto the upper-surface of the pre-coated Transwell® inserts and incubated for 15 hours at 37° C., 5% CO2 (refer to above for proteins pre-bound and concentrations used). […]

“LFSSEESNLGANNYDDYRMDWL (listed as Homo sapiens) [Peptide P7, human VN motif 7 mimic]” was tested, and the MCF-7 cell migration (TRI supplemented with peptide at 3× molar concentration of IGFBP-5 (43 ng/mL P7, 38 ng/mL P8), 15 hours) was 94.7±0.2 % of VN and the MCF-7 cell migration (TRI supplemented with peptide at 9× molar concentration of IGFBP-5, 15 hours) was 146±14 % of VN.
In the case of “KTYLFKGSQYWRFEDG [Neg, reference compound]”, the MCF-7 cell migration (TRI supplemented with non-binding peptide, concentration not given, 15 hours) is reported as 276±24 % of VN and the “Effect on TRI-stimulated MCF-7 cell migration” value (non-binding peptide supplemented into TRI, concentration not given) is reported as “did not affect”.
